We go through three substances from US20060040859A1, “Peptides, DNAs, RNAs, and compounds for inhibiting or inducing adrenomedullin activity, and use of the same” (priority 2002, published 2006).

For assay [1], the system named is HUVEC cells. The assay is described as follows: MTS assay, endothelial cells under hypoxic and nutrient-deprived conditions with VEGF and FGF (Example 7B). To be noted: hypoxic and glucose-deprived, AM 0 to 10^-6 M, VEGF and FGF 10 ng/ml, 48 h. It counts as cell-based. As for the experimental part:
The effect of AM on the growth and apoptosis of endothelial cells under extreme conditions (hypoxic and nutrient-deprived) and in the presence of growth factors is examined herein. As in Example 1 above, hypoxic conditions comprised culture in 1% O2 concentration for 12 h using a hypoxic culture chamber (Wakenyaku Industry) and nutrient-deprived conditions involved addition of only 13 mg/dl glucose.
Five×10^3 cells (2×10^4 in some experiments) were plated in wells of 96-well plates. Human adrenomedullin (AM) (SEQ ID NO: 1) was added at indicated concentrations, ranging from 0 to 10^−6 M. VEGF and FGF were added at 10 ng/ml. The cells were incubated for 48 h and the viable cell numbers were determined by the MTS assay according to the manufacturer's instructions as described above in Example 7A.
(Tetrazolium assays rely on reduction of a dye to a coloured formazan, in cell work by metabolically active cells.)

Assay [2] has as its system proliferating cell nuclear antigen (PCNA) of tumor cells. The assay is described as follows: Anti-PCNA staining of tumor cells (Example 5). It counts as in vivo, mouse. Particulars: for cells reacting with the anti-PCNA antibody: FIG. 6; for PCNA-labelling index: tumor cells of treated mice. The text has this:
The effect of a peptide of the present invention on cell proliferation was examined. The proliferating cell nuclear antigen (PCNA) of tumor cells from the mice used in Example 2 was stained with anti-PCNA antibody. The staining method was the same as in Example 4. Five mice were used in the experiment. The staining results for tumor cells of an adrenomedullin-administered mouse are shown on the left side in FIG. 6, while those of an adrenomedullin antagonist-administered mouse are shown on the right side.

The subject of assay [3] is PCI-43 cells. The assay is described as follows: Intra-tumoral injection of AM or AMA peptide, tumor size of PCI-43 xenograft (Example 2). It counts as in vivo, mouse. Particulars: 50 μg in 0.1 ml saline into the tumor once a day, 7th to 16th day, observed to 21st day, SCID mice. As for the experimental part: On the dorsal side of a CB17lcr-scid Jl mouse (CLEA JAPAN Inc.), 10^7 PCI-43 cells were subcutaneously transplanted. It was confirmed that PCI-43 cells proliferated to form a tumor, and that the tumor diameter exceeded 5 mm after 7 days. After that confirmation, 50 μg […] each of adrenomedullin and a peptide of the present invention (dissolved in 0.1 ml of physiological saline) was injected into the tumor once a day starting on the 7th day until the 16th day. A peptide consisting of SEQ ID NO: 2 was used as the peptide of the present invention (hereinafter also referred to as an “adrenomedullin antagonist (AMA)”). This peptide was purchased from Wako Pure Chemical Industries, Ltd.
The tumor diameter was megascopically measured every three days. Results are shown in FIG. 2, a graphical representation of tumor sizes when adrenomedullin, adrenomedullin antagonist, and physiological saline (V3), respectively, were administered. The horizontal axis represents the number of days after transplanting PCI-43 cells, and the vertical axis the size of the tumor in volume (mm^3). Arrows at the upper part of the graph indicate timings of administration of adrenomedullin, adrenomedullin antagonist, and physiological saline. Five CB 17lcr-scid Jl mice were used in each group.

In assay [4] the test system is Rat-2 cells. The experiment in a line: Intracellular cAMP in Rat-2 cells. It counts as cell-based. Particulars: in the absence of CGRP binding. The source says:
(§1) In order to skip this problem, cell lines expressing endogenous adrenomedullin binding. Three cell lines to date are available. L6 cells are a rat myoblast cell line known to express CGRP1 receptors, Swiss 3T3 cells are a mouse fibroblast cell line, and Rat-2 cells are rat fibroblasts. […] L6 cells express CRLR and RAMPs 1 and 2. In Swiss 3T3 cells the effects of adrenomedullin were mediated via specific adrenomedullin receptors. […] These cells are useful in establishing the screening system to inhibit functionally the intracellular signal transduction after a receptor engagement by adrenomedullin.

In assay [5] the test system is U87 glioblastoma cells. To be noted: exogenously added; cited from earlier work.
The test system of assay [6] is newly generated blood vessels. The experiment in a line: Anti-CD31 staining and diameters of newly generated blood vessels in tumor tissue (Example 4). It counts as in vivo, mouse. To be noted: for Average ± standard deviation of blood vessel diameters: 100 newly generated blood vessels; for Number of blood vessels 2 μm to less than 8 μm / Number of blood vessels 8 μm or more / Number of blood vessels less than 2 μm: of 100 arbitrarily selected newly generated blood vessels, by diameter; for newly generated blood vessels by anti-CD31 staining: tumor tissue of Example 3 mice, FIG. 5. As for the experimental part:
The effect of a peptide of the present invention on angiogenesis was examined. Experiments were carried out with the tumor tissues of mice used in Example 3. Mouse tumor tissues were extirpated, and CD31 antigen, which is the cell surface marker specific for vascular endothelial cells, was stained with anti-CD31 antibody. Staining was performed as described below. The experiments were carried out using five mice.
Tumor tissues were frozen in liquid nitrogen to prepare frozen sections. After the frozen sections were pre-treated in albumin solution for 30 min, endogenous peroxidase activity was suppressed with hydrogen peroxide, and then, the sections were treated with anti-CD31 antibody for 1 h at room temperature. After washing, the sections were treated with a secondary antibody for 1 h, and coloured using […].
Next, 100 newly generated blood vessels of the vascular endothelial cells used in Example 4 were arbitrarily selected to measure their respective diameters. In Table 1, results of the number of the newly generated blood vessels classified by their diameters into three groups (less than 2 μm, 2 μm to less than 8 μm, and 8 μm or more) are shown together with the average of blood vessel diameters and standard deviations. In Table 1, AM stands for adrenomedullin, and AMA adrenomedullin antagonist.

In assay [7] the test system is Mitogen-activated protein kinases (MAPKS). The assay is described as follows: MAPK activity in Rat-2 cells. The format is cell-based.
Source text: as §1

Assay [8] concerns HUVEC cells. The assay is described as follows: MTS assay, endothelial cell growth under normoxic, normal glucose conditions (Example 7A). It counts as cell-based. To be noted: AM 0 to 10^-6 M, 48 h, normoxic and nutrient-supplied. As for the experimental part:
The effect of AM on the growth of endothelial cells under normal conditions (normoxia, normal glucose) is examined herein. As in Example I above, normoxic conditions comprised culture in 20% O2 concentration and normal glucose conditions involved addition of 100 mg/dl of glucose or higher.
Five×10^3 cells (2×10^4 in some experiments) were plated in wells of 96-well plates. Human adrenomedullin (AM) (SEQ ID NO: 1) was added at indicated concentrations, ranging from 0 to 10^−6 M. The cells were incubated for 48 h and the viable cell numbers were determined by MTS assay according to the manufacturer's instructions. Cell viability can be reflected by the integrity of the mitochondria. When the MTS reagent (a tetrazolium salt) is applied to living cells, it is converted to a color compound (formazan) […] at 490 nm. Accordingly, the MTS assay may be used to assay cell viability and to count viable cells.

For assay [9], the system named is PCI-43 cells. The experiment in a line: Intra-tumoral injection of AM or AMA peptide, extirpated PCI-43 tumor size and weight (Example 3). It counts as in vivo, mouse. As for the experimental part: On the dorsal side of CB17lcr-scid Jl mice (CLEA JAPAN Inc.), 10^7 PCI-43 cells were subcutaneously transplanted. It was confirmed that PCI-43 cells proliferated to form a tumor, and that the tumor diameter exceeded 5 mm after 7 days. After that confirmation, 50 μg each […] of adrenomedullin and adrenomedullin antagonist (dissolved in 0.1 ml of physiological saline) was injected into the tumor once every three days from the 7th day, that is, on the 7th, 10th, 13th, and 16th days. Adrenomedullin and adrenomedullin antagonist used herein were the same as those used in Example 1.
Mice were sacrificed on the 21st day, and tumors were extirpated and weighed.

Assay [10] relates to HUVEC cells. The experiment in a line: MTS assay, AMA with AM on endothelial cells under hypoxic and nutrient-deprived conditions (Example 7C). The format is cell-based. To be noted: AM 10^-6 M, AMA 0 to 10^-6 M, VEGF and FGF 10 ng/ml, 48 h. As for the experimental part:
The effect of both AM and AMA together on the growth and apoptosis of endothelial cells under extreme conditions (hypoxic and nutrient-deprived) and in the presence of growth factors is examined herein. As in Example 1 above, hypoxic conditions comprised culture in 1% O2 concentration for 12 h using a hypoxic culture chamber (Wakenyaku Industry) and nutrient-deprived conditions involved addition of only 13 mg/dl glucose.
Five×10^3 cells (2×10^4 in some experiments) were plated in wells of 96-well plates. Human adrenomedullin (AM) (SEQ ID NO: 1) was added at a concentration of 10^−6 M and a human adrenomedullin antagonist peptide (AMA) (SEQ ID NO: 2) was added at indicated concentrations, ranging from 0 to 10^−6 M. VEGF and FGF were added at 10 ng/ml. The cells were incubated for 48 h and the viable cell numbers were determined by the MTS assay according to the manufacturer's instructions as described above in Example 7A.

Assay [11] has as its system cancer cells. The assay is described as follows: In vitro growth of cancer cells with AMA. It counts as cell-based.

“Also recorded” adds a separate entry of the source.

Turning to VEGF, the “apoptosis of endothelial cells (viable cells, O.D.)” value (“apoptosis of endothelial cells” for short) in assay [1] is recorded as “underwent apoptosis”.

For “adrenomedullin (YRQSMNNFQGLRSFGCRFGTCTVQKLAHQIYQFTDKDKDNVAPRSKISPQGY; listed as Homo sapiens) [AM, reference compound]”, in [2], the “cells reacting with the anti-PCNA antibody” value was “many cells reacting with the anti-PCNA antibody were present” and the PCNA-labelling index is recorded as 25.8±3.9. The “tumor size (volume)” value in assay [3] was “the tumor size hardly changed”. The “intracellular cAMP” value in [4] is recorded as “dose-dependent stimulation of intracellular cAMP”. Also, in assay [5], the “growth of glioblastoma cells in vitro” value is given as “can stimulate the growth”. Besides, in assay [6], the “Average ± standard deviation of blood vessel diameters” value worked out at 6.454 ± 5.313 μm, the “Number of blood vessels 2 μm to less than 8 μm” value was 54, the “Number of blood vessels 8 μm or more” value came out at 31 and the “Number of blood vessels less than 2 μm” value came to 15. Also, the “newly generated blood vessels by anti-CD31 staining” value in assay [6] is on record as “thick blood vessels were newly generated”. Further, the “PDGF-stimulated and basal MAPK activity” value in [7] is “potently and dose-dependently inhibited”. The “growth of endothelial cells (viable cells, O.D.)” value in assay [8] is listed as “no significant effect”. The “apoptosis of endothelial cells” value in assay [1] is “protected the endothelial cells from apoptosis”. Also, the tumor weight result in assay [9] (50 μg into the tumor on 7th, 10th, 13th, 16th days, tumors extirpated on 21st day) is listed as “about 0.05 g”.

Take “AMA: 31 amino acid truncated human adrenomedullin lacking the first 21 N-terminal amino acids (SEQ ID NO: 2), purchased from Wako”: in assay [2], the “cells reacting with the anti-PCNA antibody” value is “few cells reacted with the anti-PCNA antibody” and the PCNA-labelling index is listed as 6.3±5.2. For the same substance, the “proliferating cells compared to adrenomedullin-administered mice” value in assay [2] (mouse, in vivo) is reported as “decreased by about one quarter”. The “tumor size (volume)” value in assay [3] (listed as adrenomedullin antagonist) is given as “became almost megascopically invisible; also recorded: reduction in tumor volume”. For the same substance, the “apoptosis of endothelial cells” value in assay [10] is “induced apoptosis of the endothelial cells in a dose dependent manner”. In assay [11], the “growth inhibitory effect on cancer cells in vitro” value was “did not exhibit any growth inhibitory effect”. Further, in [6], the “Average ± standard deviation of blood vessel diameters” value was 2.276 ± 1.120 μm, the “Number of blood vessels 2 μm to less than 8 μm” value is on record as 44, the “Number of blood vessels 8 μm or more” value turned out to be 1 and the “Number of blood vessels less than 2 μm” value is recorded as 55. Further, the “newly generated blood vessels by anti-CD31 staining” value in [6] is recorded as “newly generated blood vessels were thin”. Further, the “blood vessel diameters relative to adrenomedullin-administered mice” value in assay [6] (mouse, in vivo) was “one half”. For the same substance, the “tumor weight relative to adrenomedullin-administered group” value in assay [9] (21st day) is given as “about half”. The “size of the extirpated tumor compared to adrenomedullin-administered group” value in assay [9] (21st day, photograph FIG. 3, listed as adrenomedullin antagonist) is given as “became smaller; also recorded: noticeably smaller”.
